According to paper PMC5218480 (PLoS ONE, 2017):

Test system: MV-4-11 cells
Assay: Gene expression microarray analysis (Affymetrix PrimeView) and GSEA
Assay type: cell-based, human
Conditions: MV-4-11, 48 hours, 1 μM each

## Nc1ccc(-c2cccs2)cc1NC(=O)c1ccc2c(c1)cc(C1CC1)n2CCN1CCOCC1 [ACY-1035]
  genes up-regulated greater than 2-fold relative to vehicle control: 386 genes
